Measurements from PubChem BioAssay (NCI).
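Five concentrations, 48 hours, 96-well plates. Here, GI50 denotes the concentration required for 50% inhibition of growth. TGI denotes the concentration required for complete inhibition of growth.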

Experiments:
Assay in all cases: growth of human tumour cells (NCI), 48 h
[1] = tested on: 786-0 renal
[2] = tested on: A549 NSCLC
[3] = tested on: ACHN renal
[4] = tested on: BT-549 breast
[5] = tested on: CAKI-1 renal
[6] = tested on: CCRF-CEM leukemia
[7] = tested on: DU-145 prostate
[8] = tested on: EKVX NSCLC
[9] = tested on: HCC-2998 colon
[10] = tested on: HCT-116 colon
[11] = tested on: HCT-15 colon
[12] = tested on: HL-60(TB) leukemia
[13] = tested on: HOP-62 NSCLC
[14] = tested on: HOP-92 NSCLC
[15] = tested on: HS 578T breast
[16] = tested on: HT29 colon
[17] = tested on: IGROV1 ovarian
[18] = tested on: K-562 leukemia
[19] = tested on: KM12 colon
[20] = tested on: LOX IMVI melanoma
[21] = tested on: M14 melanoma
[22] = tested on: MCF7 breast
[23] = tested on: MDA-MB-231 breast
[24] = tested on: MDA-MB-435
[25] = tested on: MOLT-4 leukemia
[26] = tested on: NCI-H23 lung
[27] = tested on: NCI-H460 lung
[28] = tested on: NCI/ADR-RES ovarian
[29] = tested on: OVCAR-3 ovarian
[30] = tested on: OVCAR-4 ovarian
[31] = tested on: OVCAR-5 ovarian
[32] = tested on: PC-3 prostate
[33] = tested on: RPMI-8226 leukemia
[34] = tested on: SF-268 CNS
[35] = tested on: SF-295 CNS
[36] = tested on: SF-539 CNS
[37] = tested on: SK-MEL-28 melanoma
[38] = tested on: SK-MEL-5 melanoma
[39] = tested on: SK-OV-3 ovarian
[40] = tested on: SNB-19 CNS
[41] = tested on: SNB-75 CNS
[42] = tested on: T-47D breast
[43] = tested on: TK-10 renal
[44] = tested on: U251 CNS
[45] = tested on: UACC-257 melanoma
[46] = tested on: UACC-62 melanoma
[47] = tested on: UO-31 renal
[48] = tested on: COLO 205 colon
[49] = tested on: MALME-3M melanoma
[50] = tested on: NCI-H226 lung
[51] = tested on: NCI-H522 lung
[52] = tested on: OVCAR-8 ovarian
[53] = tested on: RXF 393 renal
[54] = tested on: SK-MEL-2 melanoma
[55] = tested on: SN12C renal
[56] = tested on: SR leukemia
[57] = tested on: SW-620 colon

CCCCCn1c(C)cc(/C=C\c2ccc3cc(C)ccc3[n+]2C)c1C
GI50 [1]: 219 nM
TGI [1]: 1170 nM
GI50 [2]: 55.7 nM
TGI [2]: 970 nM
GI50 [3]: 239 nM
TGI [3]: 1150 nM
GI50 [4]: 69.9 nM
TGI [4]: 664 nM
GI50 [5]: 164 nM
TGI [5]: 675 nM
GI50 [6]: 35.4 nM
TGI [6]: 601 nM
GI50 [7]: 58.6 nM
TGI [7]: 1300 nM
GI50 [8]: 275 nM
TGI [8]: 2430 nM
GI50 [9]: 143 nM
TGI [9]: 1510 nM
GI50 [10]: 34.3 nM
TGI [10]: 1090 nM
GI50 [11]: 490 nM
TGI [11]: 1900 nM
GI50 [12]: 29.6 nM
TGI [12]: 128 nM
GI50 [13]: 283 nM
TGI [13]: 980 nM
GI50 [14]: 109 nM
TGI [14]: 487 nM
GI50 [15]: 166 nM
TGI [15]: 1750 nM
GI50 [16]: 64.5 nM
TGI [16]: 1190 nM
GI50 [17]: 38.6 nM
TGI [17]: 1110 nM
GI50 [18]: 34.1 nM
TGI [18]: 1110 nM
GI50 [19]: 83.6 nM
TGI [19]: 1210 nM
GI50 [20]: 95.1 nM
TGI [20]: 1850 nM
GI50 [21]: 253 nM
TGI [21]: 1380 nM
GI50 [22]: 199 nM
TGI [22]: 1040 nM
GI50 [23]: 329 nM
TGI [23]: 1710 nM
GI50 [24]: 116 nM
TGI [24]: 1090 nM
GI50 [25]: 76.9 nM
TGI [25]: 327 nM
GI50 [26]: 41.4 nM
TGI [26]: 1100 nM
GI50 [27]: 113 nM
TGI [27]: 839 nM
GI50 [28]: 2110 nM
TGI [28]: > 34400 nM
GI50 [29]: 79.3 nM
TGI [29]: 911 nM
GI50 [30]: 68.3 nM
TGI [30]: 1510 nM
GI50 [31]: 313 nM
TGI [31]: 1410 nM
GI50 [32]: 62.3 nM
TGI [32]: 1030 nM
GI50 [33]: 20.2 nM
TGI [33]: 322 nM
GI50 [34]: 252 nM
TGI [34]: 1410 nM
GI50 [35]: 98.2 nM
TGI [35]: 595 nM
GI50 [36]: 241 nM
TGI [36]: 1060 nM
GI50 [37]: 339 nM
TGI [37]: 1710 nM
GI50 [38]: 80.1 nM
TGI [38]: 219 nM
GI50 [39]: 124 nM
TGI [39]: 853 nM
GI50 [40]: 123 nM
TGI [40]: 1510 nM
GI50 [41]: 79.1 nM
TGI [41]: 975 nM
GI50 [42]: 29.9 nM
TGI [42]: 751 nM
GI50 [43]: 157 nM
TGI [43]: 890 nM
GI50 [44]: 34.5 nM
TGI [44]: 1520 nM
GI50 [45]: 367 nM
TGI [45]: 1450 nM
GI50 [46]: 243 nM
TGI [46]: 1100 nM
GI50 [47]: 212 nM
TGI [47]: 502 nM

Fc1cc(-c2cc(-c3ccc4c(c3)OCO4)n[nH]2)c(Cl)cc1Cl
TGI [1]: 3590 nM
TGI [2]: 7860 nM
TGI [3]: 3860 nM
TGI [4]: 20700 nM
TGI [5]: 10800 nM
TGI [6]: > 89000 nM
TGI [48]: > 23400 nM
TGI [7]: 13000 nM
TGI [8]: 5170 nM
TGI [9]: 15600 nM
TGI [10]: 4170 nM
TGI [11]: 49100 nM
TGI [12]: > 100000 nM
TGI [13]: 5810 nM
TGI [14]: 6210 nM
TGI [15]: > 45400 nM
TGI [16]: 15900 nM
TGI [17]: 7500 nM
TGI [18]: > 40100 nM
TGI [19]: > 22700 nM
TGI [20]: 8490 nM
TGI [21]: 18300 nM
TGI [49]: 24800 nM
TGI [23]: 4940 nM
TGI [24]: 30900 nM
TGI [25]: > 50700 nM
TGI [50]: 5700 nM
TGI [26]: 7730 nM
TGI [27]: 14600 nM
TGI [51]: 14600 nM
TGI [28]: 12400 nM
TGI [29]: 5330 nM
TGI [30]: 4490 nM
TGI [31]: 13700 nM
TGI [52]: 3410 nM
TGI [32]: 11100 nM
TGI [33]: > 46400 nM
TGI [53]: 4450 nM
TGI [34]: 9700 nM
TGI [35]: 9400 nM
TGI [36]: 6240 nM
TGI [54]: 36500 nM
TGI [37]: 16900 nM
TGI [38]: 21000 nM
TGI [39]: 5440 nM
TGI [55]: 7580 nM
TGI [40]: 12900 nM
TGI [41]: 3680 nM
TGI [56]: > 50100 nM
TGI [57]: 28900 nM
TGI [42]: 7790 nM
TGI [43]: 7060 nM
TGI [44]: 3630 nM
TGI [45]: 27900 nM
TGI [46]: 3800 nM
TGI [47]: 6460 nM
